Data: ChEMBL document CHEMBL4706476, “Novel Tetrahydropyrido[4,3-d]pyrimidines as Potent Inhibitors of Chaperone Heat Shock Protein 90” (J Med Chem, 2016)
Values after ≈ are worked out from the molar mass of the structure shown.

What was measured:
[1] = molecular target: Heat shock protein HSP 90-alpha (Homo sapiens, UniProt P07900); test: Displacement of FITC-geldanamycin from N-terminal HSP90alpha (unknown origin) after 30 mins by fluorescence polarization competitive binding assay
HCT-116 = test: cells; conditions: Homo sapiens, HCT-116, 72 h
Description: Antiproliferative activity against human HCT-116 cells assessed as reduction in cell viability incubated for 72 hrs by MTT assay

MCF7 = test: cells; conditions: Homo sapiens, MCF7, 72 h
Endoplasmin = Endoplasmin (Homo sapiens, UniProt P14625); test: Displacement of FITC-geldanamycin from N-terminal GRP94 (unknown origin) after 30 mins by fluorescence polarization competitive binding assay
Endoplasmin, sequence (P14625 whole entry): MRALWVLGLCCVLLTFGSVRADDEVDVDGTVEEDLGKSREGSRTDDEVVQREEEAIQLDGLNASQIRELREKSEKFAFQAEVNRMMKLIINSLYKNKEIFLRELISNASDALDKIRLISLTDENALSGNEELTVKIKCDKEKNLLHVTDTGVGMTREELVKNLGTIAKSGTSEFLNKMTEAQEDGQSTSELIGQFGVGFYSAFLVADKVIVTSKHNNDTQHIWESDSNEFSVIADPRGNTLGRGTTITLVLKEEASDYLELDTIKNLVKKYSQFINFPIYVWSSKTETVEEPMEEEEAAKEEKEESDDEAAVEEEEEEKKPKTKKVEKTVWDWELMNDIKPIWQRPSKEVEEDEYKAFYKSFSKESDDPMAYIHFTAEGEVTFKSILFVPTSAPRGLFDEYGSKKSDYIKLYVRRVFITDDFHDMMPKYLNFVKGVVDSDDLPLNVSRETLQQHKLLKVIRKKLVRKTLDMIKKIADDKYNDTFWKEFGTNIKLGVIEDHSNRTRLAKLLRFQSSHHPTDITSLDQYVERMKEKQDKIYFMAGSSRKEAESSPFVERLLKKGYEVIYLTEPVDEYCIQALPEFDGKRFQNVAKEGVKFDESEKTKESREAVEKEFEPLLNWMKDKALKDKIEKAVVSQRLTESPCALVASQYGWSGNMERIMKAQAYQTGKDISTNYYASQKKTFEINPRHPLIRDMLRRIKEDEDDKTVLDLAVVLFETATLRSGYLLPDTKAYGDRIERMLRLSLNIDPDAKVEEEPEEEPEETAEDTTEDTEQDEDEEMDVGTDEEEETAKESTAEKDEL

[2] = Selectivity ratio of IC50 for inhibition of FITC-geldanamycin binding to N-terminal GRP94 (unknown origin) to IC50 for inhibition of FITC-geldanamycin binding to N-terminal HSP90alpha (unknown origin)
[3] = Intrinsic aqueous solubility of the compound; type: physicochemical
[4] = Permeability of the compound at pH 7.4 by PAMPA; type: ADME; conditions: read-out: permeability
[5] = Distribution coefficient, logD of compound at pH 7.4; type: physicochemical; conditions: octanol/water

Row | SMILES | IC50 [1] | IC50 (HCT-116) | IC50 (MCF7) | IC50 (Endoplasmin) | Ratio IC50 [2] | solubility [3] | Papp [4] | logD [5]
1 | Cc1ncc2c(n1)CCN(C(=O)c1cc(Br)c(O)cc1O)C2 | 132 nM | 1530 nM | 1730 nM | – | – | – | – | –
2 | CC(C)COc1ncc2c(n1)CCN(C(=O)c1cc(C(C)C)c(O)cc1O)C2 | 65 nM | 1230 nM | 1330 nM | 706 nM | 10.9 | – | – | –
3 | CC(C)c1cc(C(=O)N2CCc3nc(OCCN4CCCCC4)ncc3C2)c(O)cc1O | 30 nM | 780 nM | 2330 nM | – | – | 175 µg/mL (≈ 396 µM) | 20.5 ×10⁻⁶ cm/s | 1.21
4 | CC(C)c1cc(C(=O)N2CCc3nc(OC4CCOCC4)ncc3C2)c(O)cc1O | 56 nM | 600 nM | 820 nM | – | – | – | – | –
5 | CC(C)c1cc(C(=O)N2CCc3nc(N4CCCCC4)ncc3C2)c(O)cc1O | 172 nM | 1550 nM | 4460 nM | – | – | – | – | –
6 | COCCOc1nc2c(c(NC3CC3)n1)CN(C(=O)c1cc(C(C)C)c(O)cc1O)CC2 | 19 nM | 230 nM | 160 nM | 216 nM | 11.4 | 157 µg/mL (≈ 355 µM) | 56.4 ×10⁻⁶ cm/s | 2.45
7 | COCCOc1nc2c(c(N(C)C)n1)CN(C(=O)c1cc(C(C)C)c(O)cc1O)CC2 | 16 nM | 260 nM | 330 nM | 195 nM | 12.2 | 153 µg/mL (≈ 355 µM) | 83 ×10⁻⁶ cm/s | 2.35
8 | COCCOc1nc2c(c(OC(C)C)n1)CN(C(=O)c1cc(C(C)C)c(O)cc1O)CC2 | 58 nM | 740 nM | 250 nM | 1320 nM | 22.7 | 40.2 µg/mL (≈ 90.2 µM) | 79.4 ×10⁻⁶ cm/s | 3.84
9 | CCN(CC)c1ncc2c(n1)CCN(C(=O)c1cc(C(C)C)c(O)cc1O)C2 | 201 nM | 4420 nM | 2160 nM | – | – | – | – | –
10 | CCCOc1ncc2c(n1)CCN(C(=O)c1cc(C(C)C)c(O)cc1O)C2 | 60 nM | 1080 nM | 1340 nM | 498 nM | 8.3 | – | – | –
11 | COCCOc1nc2c(c(NC(C)C)n1)CN(C(=O)c1cc(C(C)C)c(O)cc1O)CC2 | 30 nM | 790 nM | 250 nM | 787 nM | 26.2 | 137 µg/mL (≈ 309 µM) | 62.4 ×10⁻⁶ cm/s | 2.98
12 | CCNc1ncc2c(n1)CCN(C(=O)c1cc(C(C)C)c(O)cc1O)C2 | 167 nM | 1560 nM | 1580 nM | – | – | – | – | –
13 | CC(C)c1cc(C(=O)N2CCc3nc(OC4CCN(C)CC4)ncc3C2)c(O)cc1O | 76 nM | 1700 nM | 1790 nM | – | – | – | – | –
14 | CC(=O)N1CCN(c2ncc3c(n2)CCN(C(=O)c2cc(C(C)C)c(O)cc2O)C3)CC1 | 270 nM | 1600 nM | 3620 nM | – | – | – | – | –
15 | CC(C)c1cc(C(=O)N2CCc3nc(N(C)C)ncc3C2)c(O)cc1O | 164 nM | 1020 nM | 1390 nM | – | – | – | – | –
16 | CC(C)c1cc(C(=O)N2CCc3nc(N4CCN(C)CC4)ncc3C2)c(O)cc1O | 271 nM | 1710 nM | 2180 nM | – | – | – | – | –
17 | CCN(CC)CCOc1ncc2c(n1)CCN(C(=O)c1cc(C(C)C)c(O)cc1O)C2 | 32 nM | 890 nM | 2900 nM | 217 nM | 6.8 | 151 µg/mL (≈ 353 µM) | 25.7 ×10⁻⁶ cm/s | 1.17
18 | CCCNc1nc(OCCOC)nc2c1CN(C(=O)c1cc(C(C)C)c(O)cc1O)CC2 | 32 nM | 400 nM | 350 nM | 796 nM | 24.9 | 114 µg/mL (≈ 257 µM) | 78.7 ×10⁻⁶ cm/s | 2.92
19 | CC(C)c1cc(C(=O)N2CCc3nc(OCCN4CCOCC4)ncc3C2)c(O)cc1O | 28 nM | 1060 nM | 1230 nM | – | – | 140 µg/mL (≈ 316 µM) | 30.2 ×10⁻⁶ cm/s | 1.48
20 | Cc1ncc2c(n1)CCN(C(=O)c1cc(C(C)C)c(O)cc1O)C2 | 26 nM | 1150 nM | 1480 nM | 245 nM | 9.4 | – | 33.3 ×10⁻⁶ cm/s | –
21 | CC(C)Nc1ncc2c(n1)CCN(C(=O)c1cc(C(C)C)c(O)cc1O)C2 | 222 nM | 2430 nM | 2680 nM | – | – | – | – | –
22 | CC(C)Oc1ncc2c(n1)CCN(C(=O)c1cc(C(C)C)c(O)cc1O)C2 | 65 nM | 1240 nM | 960 nM | 518 nM | 8 | – | – | –
23 | Cc1ncc2c(n1)CCN(C(=O)c1cc(Cl)c(O)cc1O)C2 | 101 nM | – | – | – | – | – | – | –

Row | SMILES | IC50 [1] | IC50 (HCT-116) | IC50 (MCF7) | IC50 (Endoplasmin) | Ratio IC50 [2] | solubility [3] | Papp [4] | logD [5]
24 | CC(C)c1cc(C(=O)N2CCc3nc(OCCN(C)C)ncc3C2)c(O)cc1O | 30 nM | 2380 nM | 1580 nM | 290 nM | 9.7 | 148 µg/mL (≈ 370 µM) | 3.25 ×10⁻⁶ cm/s | 1.04
25 | CC(C)c1cc(C(=O)N2CCc3nc(OCCCN(C)C)ncc3C2)c(O)cc1O | 36 nM | 920 nM | 2370 nM | – | – | 156 µg/mL (≈ 375 µM) | 4.15 ×10⁻⁶ cm/s | 1.09
26 | Cc1ncc2c(n1)CN(C(=O)c1cc(Cl)c(O)cc1O)C2 | 474 nM | 10700 nM | 5480 nM | – | – | – | – | –
27 | COc1ncc2c(n1)CCN(C(=O)c1cc(C(C)C)c(O)cc1O)C2 | 75 nM | 1160 nM | 630 nM | 498 nM | 6.6 | – | – | –
28 | CCN1CCN(c2ncc3c(n2)CCN(C(=O)c2cc(C(C)C)c(O)cc2O)C3)CC1 | 191 nM | 1650 nM | 1430 nM | – | – | – | – | –
29 | CNc1nc(OCCOC)nc2c1CN(C(=O)c1cc(C(C)C)c(O)cc1O)CC2 | 17 nM | 270 nM | 290 nM | 196 nM | 11.5 | 178 µg/mL (≈ 427 µM) | 57.5 ×10⁻⁶ cm/s | 2.21
30 | CC(C)c1cc(C(=O)N2CCc3nc(OC4CCCCC4)ncc3C2)c(O)cc1O | 103 nM | 2780 nM | 1870 nM | – | – | – | – | –
31 | COCCOc1nc2c(c(OC)n1)CN(C(=O)c1cc(C(C)C)c(O)cc1O)CC2 | 30 nM | 250 nM | 140 nM | 232 nM | 7.7 | 93.5 µg/mL (≈ 224 µM) | 75.8 ×10⁻⁶ cm/s | 2.56
32 | CCOc1ncc2c(n1)CCN(C(=O)c1cc(C(C)C)c(O)cc1O)C2 | 56 nM | 760 nM | 620 nM | 561 nM | 10 | 66 µg/mL (≈ 185 µM) | 72.4 ×10⁻⁶ cm/s | 2.95
33 | CC(C)c1cc(C(=O)N2CCc3nc(OCCN4CCCC4)ncc3C2)c(O)cc1O | 29 nM | 980 nM | 1930 nM | – | – | 146 µg/mL (≈ 341 µM) | 3.06 ×10⁻⁶ cm/s | 1.12
34 | CCCCOc1ncc2c(n1)CCN(C(=O)c1cc(C(C)C)c(O)cc1O)C2 | 88 nM | 1270 nM | 880 nM | 670 nM | 7.6 | – | – | –
35 | CNc1ncc2c(n1)CCN(C(=O)c1cc(C(C)C)c(O)cc1O)C2 | 113 nM | 740 nM | 1250 nM | – | – | – | – | –
36 | CCCN(CCC)c1ncc2c(n1)CCN(C(=O)c1cc(C(C)C)c(O)cc1O)C2 | 370 nM | 5700 nM | 3090 nM | – | – | – | – | –
37 | CCN(CC)c1nc(OCCOC)nc2c1CN(C(=O)c1cc(C(C)C)c(O)cc1O)CC2 | 102 nM | 3570 nM | 2890 nM | 1100 nM | 10.8 | 95.9 µg/mL (≈ 209 µM) | 107 ×10⁻⁶ cm/s | 3.08
38 | CCCCN(CCCC)c1ncc2c(n1)CCN(C(=O)c1cc(C(C)C)c(O)cc1O)C2 | 343 nM | 1290 nM | 1120 nM | – | – | – | – | –
39 | CCCNc1ncc2c(n1)CCN(C(=O)c1cc(C(C)C)c(O)cc1O)C2 | 238 nM | 2340 nM | 2370 nM | – | – | – | – | –
40 | CCOc1nc(OCCOC)nc2c1CN(C(=O)c1cc(C(C)C)c(O)cc1O)CC2 | 26 nM | 320 nM | 180 nM | 608 nM | 23.4 | 86.1 µg/mL (≈ 200 µM) | 77.3 ×10⁻⁶ cm/s | 2.74
41 | CC(C)c1cc(C(=O)N2CCc3nc(N4CCCC4)ncc3C2)c(O)cc1O | 113 nM | 1140 nM | 4550 nM | – | – | – | – | –
42 | CC(C)c1cc(C(=O)N2CCc3nc(N4CCOCC4)ncc3C2)c(O)cc1O | 110 nM | 1470 nM | 1820 nM | – | – | – | – | –
43 | Cc1ncc2c(n1)CN(C(=O)c1cc(Br)c(O)cc1O)C2 | 262 nM | 1550 nM | 3720 nM | – | – | – | – | –
44 | Cc1ncc2c(n1)CN(C(=O)c1cc(C(C)C)c(O)cc1O)C2 | 38 nM | 1630 nM | 2140 nM | 50 nM | 1.3 | – | 27 ×10⁻⁶ cm/s | –
45 | CC(C)c1cc(C(=O)N2CCc3nc(OC4CCCC4)ncc3C2)c(O)cc1O | 71 nM | 1720 nM | 1190 nM | – | – | – | – | –
